Assay results: article PMC11001709, “Anti-toxoplasma activity and DNA-binding of copper(II) and zinc(II) coordination compounds with 5-nitroimidazole-based ligands” (Journal of Biological Inorganic Chemistry, 2023)

Legend:
[1] = tested on: young adult male ICR mice; test: Acute toxicity (LD50), intraperitoneal; format: in vivo, mouse; conditions: single dose
Method: For the acute toxicity assays, young adult male ICR mice with an average weight of 28 g and a variation of no more than ± 3 g were used. The handling of the animals was carried out in accordance with the committee for the care and use of laboratory animals (CICUAL) from the Faculty of Chemistry, UNAM.
A stock solution with a concentration of 25 mg mL^−1 of [Cu(onz)2Cl2] and [Cu(onz)2Br2] was prepared with water for injection. In the case of [Cu(onz)2Br2], 0.1% of DMSO was added. For the pharmacological profile three mice were used for each dose of 1, 10 and 100 mg kg^−1 per compound. For the acute toxicity assays five mice were treated for each dose (10, 50, 75 and 100 mg kg^−1) per compound. […] A detailed clinical observation was made 24 h after administration. The doses were administered intraperitoneally. The data obtained were used to calculate the mean lethal dose using the software Prism 13.0 and SPSS 29.0 [37, 38].
Based on the anti-toxoplasma results the medial lethal dose (LD50) for [Cu(onz)2Cl2] and [Cu(onz)2Br2] were determined intraperitoneally using doses of 10, 50, 75 and 100 mg kg^−1 per compound in young adult male ICR mice.

Entamoeba histolytica = conditions: cited from earlier work
ct-DNA = test: UV-Vis absorption titration with ct-DNA (Kb); format: binding, calf; conditions: band at 320 nm, cacodylate/NaCl buffer pH 7.25, 1 h
Method: For the UV–Vis, fluorescence and circular dichroism assays the concentration of ct-DNA was determined on a Varian Cary 100 Scan spectrophotometer from the absorption at 260 nm and the corresponding molar absorptivity of 6600 M^−1 cm^−1 (nucleobase concentration). The stock solutions of the coordination compounds and the free ligands were prepared in cacodylate/NaCl buffer (1 mM cacodylic acid and 20 mM sodium chloride) at pH 7.25. The final samples contained a DMSO concentration of 0.2%.
Absorption titration experiments were carried out by adding increasing concentrations of ct-DNA (0–25 µM) to 10 µM of the compounds in a final volume of 2 mL. The samples were incubated for 1 h at 37 °C, and spectra were collected on a Varian Cary 100 Scan spectrophotometer. For these assays the charge-transfer band of the compounds was followed at 320 nm. The intrinsic binding constant (Kb) was determined from the titration data using Eq. 2:2 DNA/εα-εf=DNA/ε0-εf+1/Kbε0-εf where εa, ε0 and εf are respectively, the molar extinction coefficients of […].

Cc1ncc([N+](=O)[O-])n1CC(O)CCl.Cc1ncc([N+](=O)[O-])n1CC(O)CCl.[Cl-].[Cl-].[Cu+2] (stereo not shown) [[Cu(onz)2Cl2]]
LD50 [1]: 49.35 mg/kg

Cc1ncc([N+](=O)[O-])n1CC(O)CCl.Cc1ncc([N+](=O)[O-])n1CC(O)CCl.[Cl][Zn][Cl] (stereo not shown) [[Zn(onz)2Cl2]]
MIC (Entamoeba histolytica): 6.25 µM

Cc1n(CC(O)CCl)c([N+](=O)[O-])c[n+]1[Cu-2]([Br])([Br])[n+]1cc([N+](=O)[O-])n(CC(O)CCl)c1C (stereo not shown) [[Cu(onz)2Br2]]
LD50 [1]: 83.24 mg/kg

Cc1ncc([N+](=O)[O-])n1CCCl.Cc1ncc([N+](=O)[O-])n1CCCl.[Br][Cu][Br] [[Cu(cenz)2Br2]]
Kb (ct-DNA): 450000 M⁻¹
